In ChEMBL document CHEMBL1201862, “PubChem BioAssay data set” (2004):
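How tested: cells in 96-well plates exposed to compound for 48 hours at five concentrations. GI50 is the concentration that inhibits growth by half.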 Activity calls are given as the source filed them. No stated cut-off is given here; in the data, active = GI50 up to about 1.1 µM and inactive = higher.

Columns and labels:
Assay in all cases: NCI anticancer screen, dose series, 48 h
786-0 = test system: 786-0
CCRF-CEM = test system: CCRF-CEM
K562 = test system: K562
KM12 = test system: KM12
M14 = test system: M14
NCI-H522 = test system: NCI-H522
OVCAR-3 = test system: OVCAR-3
SF-268 = test system: SF-268
SF-295 = test system: SF-295
SK-MEL-2 = test system: SK-MEL-2
SNB-19 = test system: SNB-19
SNB-75 = test system: SNB-75
SR = test system: SR
TK-10 = test system: TK-10
U-251 = test system: U-251
UO-31 = test system: UO-31
DU-145 = test system: DU-145

Measured: GI50

COc1cc(C=C2C(=O)NC(=O)NC2=O)cc(OC)c1OC
inactive: 786-0 > 100 µM | CCRF-CEM > 100 µM | K562 > 100 µM | KM12 > 100 µM | M14 > 100 µM | NCI-H522 > 100 µM | OVCAR-3 > 100 µM | SF-268 > 100 µM | SF-295 > 100 µM | SK-MEL-2 > 100 µM | SNB-19 > 100 µM | SNB-75 80.2 µM | SR > 100 µM | TK-10 > 100 µM | U-251 > 100 µM | UO-31 > 100 µM

CNC(=O)CN(CC(N)=O)C(N)=O
inactive: 786-0 > 100 µM | CCRF-CEM > 100 µM | K562 > 100 µM | KM12 > 100 µM | M14 > 100 µM | NCI-H522 > 100 µM | OVCAR-3 > 100 µM | SF-268 > 100 µM | SF-295 > 100 µM | SK-MEL-2 > 100 µM | SNB-19 > 100 µM | SNB-75 77.3 µM | SR > 100 µM | TK-10 > 100 µM | U-251 > 100 µM | UO-31 > 100 µM

NC(=S)N1N=C2c3ccccc3CC[C@@H]2[C@@H]1c1ccccc1
inactive: 786-0 6.89 µM | CCRF-CEM 3.24 µM | K562 2 µM | KM12 4.27 µM | M14 4.4 µM | NCI-H522 1.5 µM | OVCAR-3 2.92 µM | SF-268 10.2 µM | SF-295 3.13 µM | SK-MEL-2 5.92 µM | SNB-19 5.77 µM | SNB-75 3.62 µM | SR 1.47 µM | TK-10 16.8 µM | U-251 3.98 µM | UO-31 14.2 µM

NS(=O)(=O)c1ccccc1C(=O)N/N=C(\c1nc2ccc([N+](=O)[O-])cc2[nH]c1=O)C(O)c1ccc([N+](=O)[O-])cc1 (centres undefined)
inactive: 786-0 > 100 µM | CCRF-CEM 71.1 µM | DU-145 > 100 µM | K562 56.5 µM | KM12 66.2 µM | M14 > 100 µM | NCI-H522 10.6 µM | OVCAR-3 > 100 µM | SF-268 > 100 µM | SF-295 > 100 µM | SK-MEL-2 > 100 µM | SNB-19 > 100 µM | SNB-75 > 100 µM | SR > 100 µM | TK-10 > 100 µM | U-251 > 100 µM | UO-31 63.7 µM

COC(=O)/C=C/c1c(CC=C(C)C)ncn1C
inactive: 786-0 38.5 µM | CCRF-CEM > 41.3 µM | K562 4.63 µM | KM12 11 µM | M14 16.4 µM | NCI-H522 25.3 µM | OVCAR-3 16.9 µM | SF-268 > 66.7 µM | SF-295 24.4 µM | SK-MEL-2 19.6 µM | SNB-19 26.1 µM | SNB-75 11.1 µM | SR 4.29 µM | TK-10 55.7 µM | U-251 19.1 µM | UO-31 28.2 µM

C=C(CN(C)C)C(=O)c1ccccc1Cl
inactive: 786-0 19.9 µM | CCRF-CEM 5.7 µM | DU-145 36.4 µM | K562 13.1 µM | KM12 > 47.8 µM | M14 19 µM | NCI-H522 6.53 µM | OVCAR-3 19.7 µM | SF-268 21.9 µM | SF-295 > 65.3 µM | SK-MEL-2 18.1 µM | SNB-19 63.1 µM | SNB-75 41.8 µM | SR 10.8 µM | TK-10 21.7 µM | U-251 52.1 µM | UO-31 18.9 µM

O=c1[nH]c(=O)n(C2OC(CO)C(O)C2O)cc1OCC(F)(F)F (centres undefined)
inactive: 786-0 > 100 µM | CCRF-CEM > 100 µM | K562 > 100 µM | KM12 > 100 µM | M14 > 100 µM | NCI-H522 > 100 µM | OVCAR-3 > 100 µM | SF-268 > 100 µM | SF-295 > 100 µM | SK-MEL-2 > 100 µM | SNB-19 > 100 µM | SNB-75 > 100 µM | SR > 100 µM | TK-10 > 100 µM | U-251 > 100 µM | UO-31 > 100 µM
